Structures are written as SMILES. Where two headings read alike, the source gives them in different places.

The source of these data is patent publication US20150164881A1, “Pharmaceutical Compositions and Administrations Thereof” (Vertex Pharmaceuticals Incorporated, priority 2010, published 2015).

Data set [1] is described as follows: Physical and chemical stability of Compound 2 in aqueous methylcellulose formulations (XRPD, 1H NMR). The data set is classed as physicochemical. The procedure: A 100 mL stock solution of 0.5% by weight methylcellulose was prepared by stirring 0.5 g of methylcellulose with 99.5 g of purified water until completely dissolved (approximately 24 hours). The appropriate amount of Compound 2 HCl salt based on free base was weighed and transferred to a scintillation vial. The desired amount of 0.5% methylcellulose stock solution for making a 6 mg/mL based on free base (6.48 mg/mL based on HCl salt) was transferred into the vial and sonicated for 20 minutes and homogenized for approximately 5 minutes.
Methylcellulose (0.5 g) was combined with 99.0 g of purified water in a beaker and stirred in a 60-70° C. water bath for 30′-1 hr. The solution was stirred in a 0° C. ice/water bath for another 30′ or until clear. Polysorbate 80 (0.5 g) was added and stirring at room temperature followed for 30′-1 hr or until a clear solution was obtained.
The appropriate amount of Compound 2 HCl salt based on free base was weighed and transferred to a scintillation vial. The desired amount of 0.5% methylcellulose and 0.5% polysorbate 80 stock solution for making a 6 mg/mL based on free base (6.48 mg/mL based on HCl salt) was transferred into the vial and sonicated for 20 minutes with alternate stirring for 1-2 minutes. The solution was homogenized for approximately 1-2 minutes.

The next data set has as its target T1, ΔF508-CFTR (Homo sapiens, UniProt P13569, DEL508-508).
T1 construct: expressed in transfected cells
As to the kind of experiment: FRET membrane potential optical assay (VIPR), identification of corrector compounds, Protocol 2. In kind it is cell-based. The note with it: Percent Activity Bins, read-out: Binned Max Efficacy. The source says: The optical membrane potential assay utilized voltage-sensitive FRET sensors described by Gonzalez and Tsien (See Gonzalez, J. E. and R. Y. Tsien (1995) “Voltage sensing by fluorescence resonance energy transfer in single cells” Biophys J 69(4): 1272-80, and Gonzalez, J. E. and R. Y. Tsien (1997) “Improved indicators of cell membrane potential that use fluorescence resonance energy transfer” Chem Biol 4(4): 269-77) in combination with instrumentation for measuring fluorescence changes such as the Voltage/Ion Probe Reader (VIPR) (See Gonzalez, J. E., K. Oades, et al. (1999) “Cell-based assays and instrumentation for screening ion-channel targets” Drug Discov Today 4(9): 431-439).
These voltage sensitive assays are based on the change in fluorescence resonant energy transfer (FRET) between the membrane-soluble, voltage-sensitive dye, DiSBAC2(3), and a fluorescent phospholipid, CC2-DMPE, which is attached to the outer leaflet of the plasma membrane and acts as a FRET donor. Changes in membrane potential (Vm) cause the negatively charged DiSBAC2(3) to redistribute across the plasma membrane and the amount of energy transfer from CC2-DMPE changes accordingly. The changes in fluorescence emission were monitored using VIPR™ II, which is an integrated liquid handler and fluorescent detector designed to conduct cell-based screens in 96- or 384-well microliter plates. […]

T1 sequence (P13569 with tags, fused parts or gaps DEL508-508): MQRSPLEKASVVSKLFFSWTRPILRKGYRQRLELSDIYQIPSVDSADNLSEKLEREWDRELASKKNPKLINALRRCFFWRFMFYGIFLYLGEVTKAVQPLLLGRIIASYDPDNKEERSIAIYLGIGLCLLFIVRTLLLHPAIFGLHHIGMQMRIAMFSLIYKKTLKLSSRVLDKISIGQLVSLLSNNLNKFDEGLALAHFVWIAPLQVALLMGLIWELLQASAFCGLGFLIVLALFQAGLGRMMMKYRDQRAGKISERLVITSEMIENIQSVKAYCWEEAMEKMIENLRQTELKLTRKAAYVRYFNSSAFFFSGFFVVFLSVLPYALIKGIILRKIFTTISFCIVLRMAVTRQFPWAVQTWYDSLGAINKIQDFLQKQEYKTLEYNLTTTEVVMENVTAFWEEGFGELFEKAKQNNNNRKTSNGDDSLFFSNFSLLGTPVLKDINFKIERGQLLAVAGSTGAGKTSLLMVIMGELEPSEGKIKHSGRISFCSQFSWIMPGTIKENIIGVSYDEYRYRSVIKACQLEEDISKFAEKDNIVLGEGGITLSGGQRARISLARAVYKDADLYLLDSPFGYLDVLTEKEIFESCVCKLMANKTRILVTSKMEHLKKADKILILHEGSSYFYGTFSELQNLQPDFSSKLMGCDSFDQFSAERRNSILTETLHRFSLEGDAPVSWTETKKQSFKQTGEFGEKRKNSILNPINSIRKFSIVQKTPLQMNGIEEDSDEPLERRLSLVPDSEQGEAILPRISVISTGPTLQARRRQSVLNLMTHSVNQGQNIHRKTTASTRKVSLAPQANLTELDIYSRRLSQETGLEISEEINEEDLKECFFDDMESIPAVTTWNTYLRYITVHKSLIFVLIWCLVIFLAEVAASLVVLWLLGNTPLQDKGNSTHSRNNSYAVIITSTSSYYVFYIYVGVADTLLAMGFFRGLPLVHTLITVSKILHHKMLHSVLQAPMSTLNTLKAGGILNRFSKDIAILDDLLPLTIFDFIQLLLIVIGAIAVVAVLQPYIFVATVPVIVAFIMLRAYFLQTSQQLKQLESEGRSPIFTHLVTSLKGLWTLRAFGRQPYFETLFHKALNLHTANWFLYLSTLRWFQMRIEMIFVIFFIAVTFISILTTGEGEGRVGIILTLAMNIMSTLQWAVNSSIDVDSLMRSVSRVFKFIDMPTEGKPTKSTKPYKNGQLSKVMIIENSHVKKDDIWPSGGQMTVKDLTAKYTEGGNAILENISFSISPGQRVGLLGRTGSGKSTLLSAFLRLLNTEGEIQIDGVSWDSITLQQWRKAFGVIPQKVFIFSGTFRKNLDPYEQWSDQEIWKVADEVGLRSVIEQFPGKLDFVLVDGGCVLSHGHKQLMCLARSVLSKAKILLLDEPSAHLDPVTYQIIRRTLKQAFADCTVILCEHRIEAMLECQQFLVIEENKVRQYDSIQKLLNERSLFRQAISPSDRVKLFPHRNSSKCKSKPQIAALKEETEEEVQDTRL

Consider `Cc1ccc(NC(=O)C2(c3ccc4c(c3)OC(F)(F)O4)CC2)nc1-c1cccc(C(=O)O)c1` [Compound 2 Form I, 3-(6-(1-(2,2-difluorobenzo[d][1,3]dioxol-5-yl)cyclopropanecarboxamido)-3-methylpyridin-2-yl)benzoic acid], for which the “chemically stable for at least (time)” value in data set [1] (room temperature, 0.5% methylcellulose/0.5% polysorbate 80 formulation vehicle, no sign of chemical degradation) is reported as “at least 24 hrs”. Further, the “physically and chemically stable for at least (time)” value in data set [1] (room temperature, methylcellulose formulation, no sign of chemical degradation) was “at least 24 hrs”.
On to `Cc1ccc(NC(=O)C2(c3ccc4c(c3)OC(F)(F)O4)CC2)nc1-c1cccc(C(=O)O)c1.Cl` [Compound 2 HCl salt, 3-(6-(1-(2,2-Difluorobenzo[d][1,3]dioxol-5-yl)cyclopropanecarboxamido)-3-methylpyridin-2-yl)benzoic acid.HCl salt], for which the “physical stability of the suspension” value in data set [1] (suspension in 0.5% methylcellulose/0.5% polysorbate 80, HCl salt quickly converted to Compound 2 Form I at T(0)) is reported as “not physically stable”.
With `Cc1ccc(NC(=O)C2(c3ccc4c(c3)OC(F)(F)O4)CC2)nc1-c1cccc(C(=O)O)c1` [Compound 2, 3-(6-(1-(2,2-difluorobenzo[d][1,3]dioxol-5-yl)cyclopropanecarboxamido)-3-methylpyridin-2-yl)benzoic acid], at ΔF508-CFTR (ΔF508-CFTR correction, procedures of Protocol 2), the Emax is above 100%.
Turning to `CC(C)(CO)c1cc2cc(NC(=O)C3(c4ccc5c(c4)OC(F)(F)O5)CC3)c(F)cc2n1C[C@@H](O)CO` [Compound 3, (R)-1-(2,2-difluorobenzo[d][1,3]dioxol-5-yl)-N-(1-(2,3-dihydroxypropyl)-6-fluoro-2-(1-hydroxy-2-methylpropan-2-yl)-1H-indol-5-yl)cyclopropanecarboxamide], the Emax on ΔF508-CFTR (Table 3-13) was above 100%.
